What was measured:
mouse DGAT1 = biological target: T1, mouse DGAT1 (Mus musculus, UniProt Q9Z2A7); assay: DGAT1 inhibitory effect test (microsome fraction, [14C]-oleoyl-CoA, triglyceride radioactivity by TLC); format: biochemical; conditions: 0.5 h; concentration of the test compound 0.1 μg/ml; mouse DGAT1 microsomes, 23° C., 30 minutes; read-out: Inhibitory ratio
T1 construct: made in house; host or cells: insect cells (High Five, Sf9, Sf21, etc.), baculovirus expression system (Invitrogen)
T1 sequence (Q9Z2A7 1-498): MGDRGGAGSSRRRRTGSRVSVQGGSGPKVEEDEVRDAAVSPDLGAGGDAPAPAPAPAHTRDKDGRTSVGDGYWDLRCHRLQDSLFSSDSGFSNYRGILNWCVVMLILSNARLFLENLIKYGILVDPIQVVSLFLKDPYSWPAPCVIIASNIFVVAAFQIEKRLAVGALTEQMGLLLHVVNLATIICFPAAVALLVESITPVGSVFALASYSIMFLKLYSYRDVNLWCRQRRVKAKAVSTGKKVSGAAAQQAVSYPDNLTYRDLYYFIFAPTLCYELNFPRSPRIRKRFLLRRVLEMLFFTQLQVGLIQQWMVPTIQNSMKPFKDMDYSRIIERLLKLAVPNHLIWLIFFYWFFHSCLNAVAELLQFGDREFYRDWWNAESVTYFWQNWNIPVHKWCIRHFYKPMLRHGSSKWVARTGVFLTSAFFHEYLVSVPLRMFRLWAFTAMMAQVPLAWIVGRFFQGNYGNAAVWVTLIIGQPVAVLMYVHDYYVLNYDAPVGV
In short: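 Baculovirus-expressed mouse DGAT1 insect-cell microsomes (10 μg) were incubated 30 min at 23 °C, pH 8.0, with 0.5 mM 1,2-dioleoyl-sn-glycerol, 30 μM [14C]-oleoyl-CoA and 0.5% Triton X-100. [14C]-triglyceride was quantified after heptane extraction and TLC. Percent inhibition was taken against vehicle control, with 0-min background subtracted.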

inhibition at 0.1 µg/mL (mouse DGAT1) [%]	melting point	Compound
≥ 50	155 to 157 °C	CCOc1ccc(F)cc1NC(=O)Nc1ccc(N2CCN(C(=O)Nc3ccc(C)cc3Cl)CC2)cc1 [Example 122, 4-{4-[3-(2-ethoxy-5-fluoro-phenyl)-ureido]-phenyl}-piperazine-1-carboxylic acid (2-chloro-4-methyl-phenyl)-amide]
≥ 50	233 to 235 °C	COc1ccc(F)cc1NC(=O)Nc1ccc(N2CCN(C(=O)Nc3ccc(C)cc3Cl)CC2)cc1 [Example 123, 4-{4-[3-(5-fluoro-2-methoxy-phenyl)-ureido]-phenyl}-piperazine-1-carboxylic acid (2-chloro-4-methyl-phenyl)-amide]
≥ 50	245 to 247 °C	COc1ccccc1NC(=O)Nc1ccc(N2CCN(C(=O)Nc3c(C)cccc3Cl)CC2)cc1 [Example 124, 4-{4-[3-(2-methoxy-phenyl)-ureido]-phenyl}-piperazine-1-carboxylic acid (2-chloro-6-methyl-phenyl)-amide]
≥ 50	232 to 234 °C	Cc1cccc(Cl)c1NC(=O)N1CCN(c2ccc(NC(=O)Nc3ccccc3F)cc2)CC1 [Example 125, 4-{4-[3-(2-fluoro-phenyl)-ureido]-phenyl}-piperazine-1-carboxylic acid (2-chloro-6-methyl-phenyl)-amide]
≥ 50	> 260 °C (dec.)	Cc1cccc(Cl)c1NC(=O)N1CCN(c2ccc(NC(=O)Nc3ccccc3Cl)cc2)CC1 [Example 126, 4-{4-[3-(2-chloro-phenyl)-ureido]-phenyl}-piperazine-1-carboxylic acid (2-chloro-6-methyl-phenyl)-amide]
≥ 50	> 260 °C (dec.)	Cc1ccccc1NC(=O)Nc1ccc(N2CCN(C(=O)Nc3c(C)cccc3Cl)CC2)cc1 [Example 127, 4-[4-(3-o-tolyl-ureido)-phenyl]-piperazine-1-carboxylic acid (2-chloro-6-methyl-phenyl)-amide]
≥ 50	217 to 219 °C	CCc1ccccc1NC(=O)Nc1ccc(N2CCN(C(=O)Nc3c(C)cccc3Cl)CC2)cc1 [Example 128, 4-{4-[3-(2-ethyl-phenyl)-ureido]-phenyl}-piperazine-1-carboxylic acid (2-chloro-6-methyl-phenyl)-amide]
≥ 50	140 to 142 °C	COc1ccc(C)cc1NC(=O)Nc1ccc(N2CCN(C(=O)Nc3ccc(Br)cc3Cl)CC2)cc1 [Example 129, 4-{4-[3-(2-methoxy-5-methyl-phenyl)-ureido]-phenyl}-piperazine-1-carboxylic acid (4-bromo-2-chloro-phenyl)-amide]
≥ 50	216 to 217 °C	CCCc1ccccc1NC(=O)Nc1ccc(N2CCN(C(=O)Nc3c(C)cccc3Cl)CC2)cc1 [Example 130, 4-{4-[3-(2-propyl-phenyl)-ureido]-phenyl}-piperazine-1-carboxylic acid (2-chloro-6-methyl-phenyl)-amide]
≥ 50	251 to 253 °C	Cc1ccc(C)c(NC(=O)Nc2ccc(N3CCN(C(=O)Nc4c(C)cccc4Cl)CC3)cc2)c1 [Example 131, 4-{4-[3-(2,5-dimethyl-phenyl)-ureido]-phenyl}-piperazine-1-carboxylic acid (2-chloro-6-methyl-phenyl)-amide]
≥ 50	189 to 190 °C	COc1ccc(Cl)cc1NC(=O)Nc1ccc(N2CCN(C(=O)Nc3c(Cl)cccc3Cl)CC2)cc1 [Example 132, 4-{4-[3-(5-chloro-2-methoxy-phenyl)-ureido]-phenyl}-piperazine-1-carboxylic acid (2,6-dichloro-phenyl)-amide]
≥ 50	164 to 166 °C	CCOc1ccccc1NC(=O)Nc1ccc(N2CCN(C(=O)Nc3c(Cl)cccc3Cl)CC2)cc1 [Example 133, 4-{4-[3-(2-ethoxy-phenyl)-ureido]-phenyl}-piperazine-1-carboxylic acid (2,6-dichloro-phenyl)-amide]

— patent US20070249620A1, “Urea Derivative” (priority 2004, published 2007)
